Measured values as given in the kinase profiling compilation of Christmann-Franck et al. (2016).
Each block holds one compound with its values, some of them ahead of it.

How the values were obtained:
Experiment in all cases: radiometric filter-binding kinase assay, Kinaseprofiler
[1] = tested on: TEK (human), Q02763 [Q939H/Q940H]; conditions: ATP 200 µM
[2] = target: CDK2 CCNA2 (human) (UniProt P24941+P20248); conditions: ATP 45 µM
[3] = target: CDK3 CCNE1 (human) (UniProt Q00526+P24864); conditions: ATP 200 µM
[4] = target: CDK2 CCNE1 (human) (UniProt P24941+P24864); conditions: ATP 120 µM
[5] = target: MTOR FKBP1A (human) (UniProt P42345+P62942); conditions: ATP 45 µM
[6] = target: PRKAA2 PRKAB1 PRKAG1 (human) (UniProt P54619+P54646+Q9Y478); conditions: ATP 45 µM
[7] = target: CDK7 CCNH MNAT1 (human) (UniProt P50613+P51948+P51946); conditions: ATP 90 µM
[8] = tested on: SGK2 (human), Q9HBY8 [S416D]; conditions: ATP 15 µM
[9] = tested on: TAOK3 (human), Q9H2K8 [N47S]; conditions: ATP 15 µM
[10] = tested on: AKT1 (human), P31749 [S478G]; conditions: ATP 155 µM
[11] = tested on: GSK3A (human), P49840 [S449A]; conditions: ATP 10 µM
Sequence of GSK3A (human), P49840 [S449A] (P49840 whole entry, looked up, stated change not applied): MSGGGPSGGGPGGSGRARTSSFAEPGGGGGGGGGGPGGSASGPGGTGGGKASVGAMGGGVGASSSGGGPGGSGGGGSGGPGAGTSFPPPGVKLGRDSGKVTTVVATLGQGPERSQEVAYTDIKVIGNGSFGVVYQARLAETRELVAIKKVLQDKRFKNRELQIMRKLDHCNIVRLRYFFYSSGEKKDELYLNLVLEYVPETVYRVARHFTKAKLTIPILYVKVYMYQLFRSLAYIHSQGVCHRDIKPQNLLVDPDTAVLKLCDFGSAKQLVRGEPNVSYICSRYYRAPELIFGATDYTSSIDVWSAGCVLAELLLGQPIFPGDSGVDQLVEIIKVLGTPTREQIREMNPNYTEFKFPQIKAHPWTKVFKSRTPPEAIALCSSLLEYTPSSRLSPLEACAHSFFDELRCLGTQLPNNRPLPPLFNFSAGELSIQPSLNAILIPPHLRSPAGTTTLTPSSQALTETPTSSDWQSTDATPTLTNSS

Sequence of TEK (human), Q02763 [Q939H/Q940H] (Q02763 whole entry Q939H/Q940H, looked up): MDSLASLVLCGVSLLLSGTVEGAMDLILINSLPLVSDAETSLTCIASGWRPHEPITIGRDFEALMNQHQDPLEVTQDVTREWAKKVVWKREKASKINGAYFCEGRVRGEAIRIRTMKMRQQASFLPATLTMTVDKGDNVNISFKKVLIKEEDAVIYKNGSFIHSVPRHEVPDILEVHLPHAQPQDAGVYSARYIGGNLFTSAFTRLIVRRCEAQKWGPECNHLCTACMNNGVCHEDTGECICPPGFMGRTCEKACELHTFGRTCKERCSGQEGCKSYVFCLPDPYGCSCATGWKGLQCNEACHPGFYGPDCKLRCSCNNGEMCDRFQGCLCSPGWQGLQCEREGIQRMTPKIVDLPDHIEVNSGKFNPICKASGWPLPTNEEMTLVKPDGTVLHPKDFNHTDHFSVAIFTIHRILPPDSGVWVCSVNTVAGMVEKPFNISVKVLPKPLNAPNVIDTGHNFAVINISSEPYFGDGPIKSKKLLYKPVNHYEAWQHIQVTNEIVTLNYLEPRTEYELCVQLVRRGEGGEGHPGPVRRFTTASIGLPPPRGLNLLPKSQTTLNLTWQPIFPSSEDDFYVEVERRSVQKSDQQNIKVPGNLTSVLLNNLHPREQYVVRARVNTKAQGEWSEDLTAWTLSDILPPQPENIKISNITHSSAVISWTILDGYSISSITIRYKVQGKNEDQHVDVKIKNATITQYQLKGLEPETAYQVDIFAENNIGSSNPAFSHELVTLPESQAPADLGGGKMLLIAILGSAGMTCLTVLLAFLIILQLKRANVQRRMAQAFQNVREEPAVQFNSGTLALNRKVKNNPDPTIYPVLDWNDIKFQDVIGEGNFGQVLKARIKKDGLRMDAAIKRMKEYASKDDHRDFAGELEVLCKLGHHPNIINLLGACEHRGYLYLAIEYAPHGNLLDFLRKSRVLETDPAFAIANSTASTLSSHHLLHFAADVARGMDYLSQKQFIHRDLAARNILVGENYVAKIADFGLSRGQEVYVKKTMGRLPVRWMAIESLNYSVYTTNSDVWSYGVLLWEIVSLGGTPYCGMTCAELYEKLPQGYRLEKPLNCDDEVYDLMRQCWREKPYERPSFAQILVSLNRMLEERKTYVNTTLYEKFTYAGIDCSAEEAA
Sequence of AKT1 (human), P31749 [S478G] (P31749 whole entry, looked up, stated change not applied): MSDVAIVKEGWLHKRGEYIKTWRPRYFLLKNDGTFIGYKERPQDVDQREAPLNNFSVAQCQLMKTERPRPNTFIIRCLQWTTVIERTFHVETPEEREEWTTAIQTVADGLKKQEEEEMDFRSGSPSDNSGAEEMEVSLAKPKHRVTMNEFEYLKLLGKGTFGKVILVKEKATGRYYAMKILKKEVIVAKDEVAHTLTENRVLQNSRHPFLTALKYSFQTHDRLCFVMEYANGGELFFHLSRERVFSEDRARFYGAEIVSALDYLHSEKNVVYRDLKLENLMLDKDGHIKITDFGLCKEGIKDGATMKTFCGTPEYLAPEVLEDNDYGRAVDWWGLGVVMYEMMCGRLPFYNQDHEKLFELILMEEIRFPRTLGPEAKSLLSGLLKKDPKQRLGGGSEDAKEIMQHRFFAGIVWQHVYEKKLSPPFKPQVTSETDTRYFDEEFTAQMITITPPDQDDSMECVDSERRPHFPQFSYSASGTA
Sequence of CDK2 CCNA2 (human) (P20248 whole entry, looked up, other chains not shown): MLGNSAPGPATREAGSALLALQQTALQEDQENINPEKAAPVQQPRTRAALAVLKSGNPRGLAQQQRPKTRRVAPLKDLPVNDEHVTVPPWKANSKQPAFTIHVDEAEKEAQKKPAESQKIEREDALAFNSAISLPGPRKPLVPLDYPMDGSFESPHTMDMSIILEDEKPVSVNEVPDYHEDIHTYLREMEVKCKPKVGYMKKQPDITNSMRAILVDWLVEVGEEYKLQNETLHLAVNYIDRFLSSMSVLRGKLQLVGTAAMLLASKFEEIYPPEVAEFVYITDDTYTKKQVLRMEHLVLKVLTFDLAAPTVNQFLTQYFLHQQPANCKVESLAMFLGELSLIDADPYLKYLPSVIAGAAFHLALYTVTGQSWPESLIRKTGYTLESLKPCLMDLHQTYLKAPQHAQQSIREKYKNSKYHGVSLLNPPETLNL
Sequence of CDK7 CCNH MNAT1 (human) (P50613 whole entry, looked up): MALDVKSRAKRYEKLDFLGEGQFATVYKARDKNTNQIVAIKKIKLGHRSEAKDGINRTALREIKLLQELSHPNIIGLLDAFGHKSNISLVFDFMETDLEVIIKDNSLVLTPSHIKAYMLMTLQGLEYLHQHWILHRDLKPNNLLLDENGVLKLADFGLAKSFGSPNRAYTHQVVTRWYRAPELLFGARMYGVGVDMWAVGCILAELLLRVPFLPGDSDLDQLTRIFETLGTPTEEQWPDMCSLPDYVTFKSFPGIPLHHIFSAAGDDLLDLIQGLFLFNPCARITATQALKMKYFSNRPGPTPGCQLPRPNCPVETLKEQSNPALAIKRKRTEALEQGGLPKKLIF
Sequence of CDK7 CCNH MNAT1 (human) (P51946 whole entry, looked up): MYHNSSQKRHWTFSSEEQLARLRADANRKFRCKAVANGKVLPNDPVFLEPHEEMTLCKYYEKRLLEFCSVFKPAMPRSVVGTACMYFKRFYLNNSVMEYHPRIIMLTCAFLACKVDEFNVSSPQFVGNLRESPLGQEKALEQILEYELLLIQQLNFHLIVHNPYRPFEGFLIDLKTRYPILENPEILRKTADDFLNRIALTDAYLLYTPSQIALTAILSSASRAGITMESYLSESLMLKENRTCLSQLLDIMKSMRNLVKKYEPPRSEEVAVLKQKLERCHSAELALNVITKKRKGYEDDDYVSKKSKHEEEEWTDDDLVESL
Sequence of CDK7 CCNH MNAT1 (human) (P51948 whole entry, looked up): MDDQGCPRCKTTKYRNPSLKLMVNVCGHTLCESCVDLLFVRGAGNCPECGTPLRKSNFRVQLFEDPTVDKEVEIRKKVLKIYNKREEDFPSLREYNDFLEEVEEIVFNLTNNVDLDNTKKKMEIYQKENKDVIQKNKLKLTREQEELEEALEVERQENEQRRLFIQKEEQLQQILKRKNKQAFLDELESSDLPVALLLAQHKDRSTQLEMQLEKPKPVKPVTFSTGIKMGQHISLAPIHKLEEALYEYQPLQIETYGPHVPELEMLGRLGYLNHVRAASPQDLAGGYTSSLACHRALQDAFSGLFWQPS
Sequence of SGK2 (human), Q9HBY8 [S416D] (Q9HBY8 whole entry, looked up, stated change not applied): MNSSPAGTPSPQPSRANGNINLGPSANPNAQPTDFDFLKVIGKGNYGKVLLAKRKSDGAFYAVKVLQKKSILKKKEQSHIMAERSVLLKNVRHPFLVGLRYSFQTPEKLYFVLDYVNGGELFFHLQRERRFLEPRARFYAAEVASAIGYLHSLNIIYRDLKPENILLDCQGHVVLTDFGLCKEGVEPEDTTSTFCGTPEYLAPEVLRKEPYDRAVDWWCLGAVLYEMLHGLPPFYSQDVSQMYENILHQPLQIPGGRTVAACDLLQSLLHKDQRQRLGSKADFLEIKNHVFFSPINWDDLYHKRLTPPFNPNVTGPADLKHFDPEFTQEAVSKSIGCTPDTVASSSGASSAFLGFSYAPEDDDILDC
Sequence of TAOK3 (human), Q9H2K8 [N47S] (Q9H2K8 whole entry, looked up, stated change not applied): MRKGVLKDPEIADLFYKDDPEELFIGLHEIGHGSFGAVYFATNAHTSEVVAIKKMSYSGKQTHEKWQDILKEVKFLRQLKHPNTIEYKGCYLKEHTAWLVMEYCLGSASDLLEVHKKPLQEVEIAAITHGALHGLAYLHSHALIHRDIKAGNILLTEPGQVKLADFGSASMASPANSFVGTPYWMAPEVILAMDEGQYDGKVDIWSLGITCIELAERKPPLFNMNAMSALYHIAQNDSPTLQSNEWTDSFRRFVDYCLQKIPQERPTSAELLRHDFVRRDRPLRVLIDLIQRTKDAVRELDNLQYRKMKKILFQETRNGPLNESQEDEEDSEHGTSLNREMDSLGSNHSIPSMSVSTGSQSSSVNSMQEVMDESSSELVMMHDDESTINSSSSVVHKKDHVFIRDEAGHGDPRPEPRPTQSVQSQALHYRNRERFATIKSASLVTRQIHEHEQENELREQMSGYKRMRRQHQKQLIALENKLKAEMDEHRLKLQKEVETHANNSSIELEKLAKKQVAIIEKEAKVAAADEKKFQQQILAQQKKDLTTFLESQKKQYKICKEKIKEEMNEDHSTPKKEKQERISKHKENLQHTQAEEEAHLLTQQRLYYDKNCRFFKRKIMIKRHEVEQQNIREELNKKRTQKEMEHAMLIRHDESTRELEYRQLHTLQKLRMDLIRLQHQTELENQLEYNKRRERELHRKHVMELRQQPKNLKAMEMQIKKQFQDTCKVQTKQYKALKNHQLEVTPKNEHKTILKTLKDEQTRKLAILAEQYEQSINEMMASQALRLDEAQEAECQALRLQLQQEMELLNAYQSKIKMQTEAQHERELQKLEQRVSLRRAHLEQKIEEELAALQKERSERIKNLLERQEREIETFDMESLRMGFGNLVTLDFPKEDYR
Sequence of MTOR FKBP1A (human) (P62942 whole entry, looked up, other chains not shown): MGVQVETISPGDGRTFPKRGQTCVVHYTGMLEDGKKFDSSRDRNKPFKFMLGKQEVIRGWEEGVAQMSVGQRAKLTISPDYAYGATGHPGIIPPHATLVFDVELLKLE

residual activity ([1]; compound 10.0 µM): 17%
Structure (SMILES): O=C(Nc1cccc(Nc2nccc(Nc3cccc(C(F)(F)F)c3)n2)c1)C1CC1

residual activity ([2]; compound 1.0 µM): 129%
residual activity ([2]; compound 10.0 µM): 113%
residual activity ([3]; compound 1.0 µM): 90%
residual activity ([3]; compound 10.0 µM): 86%
residual activity ([4]; compound 1.0 µM): 105%
residual activity ([4]; compound 10.0 µM): 96%
residual activity ([5]; compound 1.0 µM): -17%
residual activity ([5]; compound 10.0 µM): 4%
residual activity ([6]; compound 1.0 µM): 93%
residual activity ([6]; compound 10.0 µM): 107%
residual activity ([7]; compound 1.0 µM): 88%
residual activity ([7]; compound 10.0 µM): 94%
Structure (SMILES): CO[C@H]1CC2CC[C@@H](C)[C@@](O)(O2)C(=O)C(=O)N2CCCC[C@H]2C(=O)OC([C@H](C)C[C@@H]2CC[C@@H](O)[C@H](OC)C2)CC(=O)[C@H](C)/C=C(\C)[C@@H](O)[C@@H](OC)C(=O)[C@H](C)C[C@H](C)/C=C/C=C/C=C/1C (stereo partly drawn)

residual activity ([8]; compound 1.0 µM): 61%
residual activity ([8]; compound 10.0 µM): 24%
residual activity ([9]; compound 1.0 µM): 85%
residual activity ([9]; compound 10.0 µM): 28%
residual activity ([10]; compound 1.0 µM): 107%
residual activity ([10]; compound 10.0 µM): 98%
residual activity ([1]; compound 1.0 µM): 103%
residual activity ([1]; compound 10.0 µM): 41%
residual activity ([11]; compound 1.0 µM): 5%
residual activity ([11]; compound 10.0 µM): 1%
Structure (SMILES): O=C1Nc2ccccc2/C1=C1\Nc2ccccc2\C1=N/O
